Assay results from the supplement of paper PMC10307832.

Tests used:
Test in all cases: relative viability (nuclei count vs DMSO), 5 days (fraction); higher = more cells survive
Quizartinib = compound: CC(C)(C)c1cc(NC(=O)Nc2ccc(-c3cn4c(n3)sc3cc(OCCN5CCOCC5)ccc34)cc2)no1 [Quizartinib]
Procedure, shortened: (§1)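 Viability was defined as treated-well nuclei divided by vehicle-well nuclei, with the median taken over replicate plates. Cells from lung cancer lines sat overnight at 37 °C in 1536-well plates, received five √10-spaced library-drug doses by pinning on vehicle-anchored plates, and grew 5 days without medium change before one-step fixation, permeabilisation and Hoechst staining, 4× imaging and MetaXpress nuclear counts. Only plates with control CV under 25% and at least one doubling were kept.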

YM155 = compound: COCC[n+]1c2c(n(Cc3cnccn3)c1C)C(=O)c1ccccc1C2=O [YM155]
Procedure, shortened: as §1

YM155 + Phenformin = compound: COCC[n+]1c2c(n(Cc3cnccn3)c1C)C(=O)c1ccccc1C2=O [YM155] + N=C(N)NC(=N)NCCc1ccccc1 [Phenformin] (partner 250 µM)
Procedure, shortened: (§2)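 Values are medians from duplicate plates. Each reflects relative viability, defined as the nuclei count of treated wells over that of vehicle wells. Lung cancer cell lines in 1536-well plates were pin-tool dosed one day after seeding with one drug alone or with a fixed anchor-drug dose plus five library-drug doses (not always all listed) in √10 steps, then fixed, stained and imaged at 4× after 5 days.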

Quizartinib + Navitoclax = compound: CC(C)(C)c1cc(NC(=O)Nc2ccc(-c3cn4c(n3)sc3cc(OCCN5CCOCC5)ccc34)cc2)no1 [Quizartinib] + CC1(C)CCC(c2ccc(Cl)cc2)=C(CN2CCN(c3ccc(C(=O)NS(=O)(=O)c4ccc(N[C@H](CCN5CCOCC5)CSc5ccccc5)c(S(=O)(=O)C(F)(F)F)c4)cc3)CC2)C1 [Navitoclax] (partner 0.5 µM)
Procedure, shortened: as §2

Cell Line | relative viability (Quizartinib; 0.001 µM) | relative viability (Quizartinib; 0.003162 µM) | relative viability (Quizartinib; 0.01 µM) | relative viability (Quizartinib; 0.03162 µM) | relative viability (Quizartinib; 0.1 µM) | relative viability (YM155; 0.002 µM) | relative viability (YM155; 0.006325 µM) | relative viability (YM155; 0.02 µM) | relative viability (YM155; 0.06325 µM) | relative viability (YM155 + Phenformin; first compound 0.002 µM) | relative viability (YM155 + Phenformin; first compound 0.006325 µM) | relative viability (YM155 + Phenformin; first compound 0.02 µM) | relative viability (YM155 + Phenformin; first compound 0.06325 µM) | relative viability (Quizartinib + Navitoclax; first compound 0.001 µM) | relative viability (Quizartinib + Navitoclax; first compound 0.003162 µM) | relative viability (Quizartinib + Navitoclax; first compound 0.01 µM) | relative viability (Quizartinib + Navitoclax; first compound 0.03162 µM) | relative viability (Quizartinib + Navitoclax; first compound 0.1 µM)
H3255 | 0.822 | 0.964 | 0.969 | 1.03 | 1.01 | 0.953 | 0.998 | 1.01 | 0.929 | 0.335 | 0.336 | 0.376 | 0.374 | 0.523 | 0.442 | 0.531 | 0.661 | 0.468
NCI-H1755 | 0.866 | 0.958 | 0.996 | 1.07 | 0.99 | 0.973 | 0.996 | 0.968 | 1.03 | 0.626 | 0.575 | 0.602 | 0.657 | 0.925 | 0.976 | 1.01 | 1 | 0.926
IA-LM | 0.889 | 0.992 | 1.11 | 0.924 | 0.933 | 0.864 | 0.969 | 1.04 | 0.764 |  |  |  |  | 0.836 | 0.908 | 0.776 | 0.836 | 0.718
NCI-H23 | 0.742 | 1.01 | 0.918 | 0.896 | 1.05 | 0.734 | 0.925 | 0.957 | 0.529 | 0.735 | 0.774 | 0.729 | 0.634 |  | 0.852 | 0.915 | 0.773 | 0.472
NCI-H661 | 0.883 | 0.988 | 0.991 | 1.01 | 0.948 | 0.982 | 0.957 | 0.991 | 0.909 | 0.257 | 0.245 | 0.264 | 0.288 |  |  |  |  | 
PC-14 | 0.884 | 0.985 | 1.09 | 0.833 | 1.18 | 0.939 | 1.02 | 1.03 | 0.931 | 0.485 | 0.708 | 0.668 | 0.554 | 1 | 0.892 | 1.09 | 0.966 | 0.977
NCI-H647 | 0.794 | 0.946 | 1.09 | 0.855 | 1.09 | 0.857 | 0.89 | 0.925 | 0.538 | 0.49 | 0.636 | 0.587 | 0.491 | 0.77 | 1.11 | 1.17 | 1.04 | 1.2
NCI-H1792 | 0.712 | 0.987 | 0.811 | 0.853 | 0.924 | 0.754 | 0.884 | 0.983 | 0.957 |  |  | 0.285 | 0.523 | 0.584 | 0.646 | 0.697 | 0.617 | 0.587
SW 900 | 0.823 | 1.12 | 0.745 | 0.803 | 0.994 | 0.71 | 0.828 | 0.869 | 0.729 | 0.638 | 0.642 | 0.674 | 0.69 |  |  |  |  | 
EKVX | 0.704 | 1 | 0.99 | 0.935 | 1.05 | 0.927 | 1.07 | 1.01 | 0.857 | 0.239 | 0.218 | 0.24 | 0.231 | 0.953 | 0.88 | 0.901 | 0.978 | 0.992
COR-L23 | 0.952 | 0.939 | 0.992 | 0.979 | 1.05 | 0.988 | 0.912 | 0.689 | 0.281 | 0.399 | 0.446 | 0.451 | 0.393 | 1.01 | 0.968 | 1.02 | 0.875 | 1.03
NCI-H1355 | 0.924 | 0.966 | 0.876 | 1 | 1.02 | 0.927 | 1.01 | 1.01 | 1.08 | 0.442 | 0.46 | 0.493 | 0.499 | 0.868 | 0.921 | 0.912 | 1 | 1
NCI-H2085 | 0.95 | 0.939 | 1.02 | 0.943 | 0.976 | 0.954 | 0.986 | 0.922 | 0.636 | 0.782 | 0.835 | 0.847 | 0.725 | 1.03 | 1.09 | 1.12 | 1.15 | 1
A-427 | 0.771 | 0.982 | 0.979 | 0.922 | 1.05 | 0.883 | 0.951 | 1.03 | 0.941 | 0.314 | 0.39 | 0.365 | 0.333 | 0.94 | 0.881 | 0.869 | 0.906 | 0.95
LOU-NH91 | 0.954 | 1.12 | 0.965 | 0.857 | 1.14 | 0.958 | 1.01 | 1.02 | 1.07 | 0.647 | 0.783 | 0.785 | 0.783 | 0.732 | 0.766 | 0.808 | 0.562 | 0.832
CAL-12T | 0.92 | 1.06 | 1.05 | 0.821 | 1.11 | 0.928 | 0.998 | 1.08 | 0.719 | 0.497 | 0.607 | 0.658 | 0.642 | 1.15 | 1.1 | 1.33 | 1.24 | 1.32
NCI-H520 | 0.73 | 0.867 | 0.96 | 0.903 | 0.921 | 1.01 | 1.03 | 1.05 | 1.17 | 0.58 | 0.535 | 0.636 | 0.604 | 1.17 | 0.982 | 1.19 | 0.948 | 0.888
LCLC-103H | 0.87 | 0.983 | 0.911 | 0.994 | 0.971 | 0.996 | 0.941 | 0.932 | 1.02 | 0.359 | 0.314 | 0.347 | 0.323 |  |  |  |  | 
